Results taken from patent US7973162B2, “Modulators of muscarinic receptors” (Vertex Pharmaceuticals Incorporated, priority 2007, dated 2011).

What was measured:
Assay type in all cases: cell-based
[1] = biological target: T1, M4 muscarinic receptor (Homo sapiens, UniProt P08173); assay: Functional mobilization of intracellular calcium (FLIPR), M4-CHO cells; details: for EC50: CHO cells expressing M4, calcium mobilization
T1 construct: expressed in transfected cells; host or cells: CHO (M4-CHO)
T1 sequence (P08173 1-479): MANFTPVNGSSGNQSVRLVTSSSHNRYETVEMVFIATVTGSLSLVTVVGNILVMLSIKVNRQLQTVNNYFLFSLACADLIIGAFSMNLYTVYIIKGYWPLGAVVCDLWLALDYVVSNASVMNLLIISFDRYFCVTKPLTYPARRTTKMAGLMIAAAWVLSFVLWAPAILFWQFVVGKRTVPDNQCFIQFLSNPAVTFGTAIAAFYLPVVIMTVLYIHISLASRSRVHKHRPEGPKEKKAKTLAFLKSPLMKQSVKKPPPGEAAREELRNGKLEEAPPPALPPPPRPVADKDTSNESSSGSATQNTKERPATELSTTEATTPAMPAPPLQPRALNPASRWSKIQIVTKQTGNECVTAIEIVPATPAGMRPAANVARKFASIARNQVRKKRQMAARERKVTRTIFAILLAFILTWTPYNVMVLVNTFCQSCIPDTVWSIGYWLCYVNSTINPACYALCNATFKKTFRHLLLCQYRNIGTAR
Procedure: (§1) Functional Mobilization of Intracellular Calcium to Determine Muscarinic Receptor Activity:
(§2) CHO cells expressing muscarinic receptors (M1 to M5) are grown as monolayers in tissue culture flasks at 37° C. in a humidified atmosphere containing 5% CO2 and passaged every 3-5 days. The growth media is Dulbecco's modified eagles medium (DMEM, Gibco Cat# 12430-054), containing 25 mM Hepes and supplemented with Fetal Bovine Serum (Hyclone, cat #SH30071.03), 0.1 mM of MEM non-essential amino acids (GIBCO, Cat #11140-050), 1 mM MEM Sodium Pyruvate (GIBCO Cat #11360-070) and 100 units/ml of Penicillin G and 100 μg/ml of Streptomycin (GIBCO Cat #15140-122). The recombinant muscarinic receptor cell lines are grown under antibiotic pressure with media containing 25 μg/ml zeocin and 500 μg/ml G418 (M1-CHO), 4 μg/ml puromycin, 50 μg/ml zeocin and 2.5 μg/ml blasticidin (M2 and M4-CHO) or 50 μg/ml zeocin and 4 μg/ml puromycin (M3 and M5-CHO).
(§3) Cells are harvested at 80-90% confluence using Versene (GIBCO Cat #15040-066), collected by centrifugation and seeded 18-24 hrs prior to running the calcium assay at a density of 5,000-10,000 cells/well in […], clear-bottomed 384-well plates (BD Biocoat, poly-D-lysine, Cat#356663). The day of the experiment, the cells are washed with a plate washer (Bioteck Instruments, ELX 405) using bath1 buffer (140-mM NaCl, 4.5-mM KCl, 2-mM CaCl2, 1-mM MgCl2, 10-mM Hepes-Na, 10-mM Glucose, pH 7.4, with NaOH) containing 1 mM Probenecid. Next, the calcium dye Fluo-3 (25 μl/well of Fluo-3 AM at 4 μM, Molecular Probes F-1241, in Bath 1 buffer containing 1 mM Probenecid) is added to the 25 μl of Bath 1 remaining in each well after the plate wash and the dye is loaded at 37° C. in the tissue culture incubator for 60-90 min. The fluorescent dye is removed using the plate washer with Bath 1 containing 1 mM Probenecid, leaving 25 μl/well of this solution after the wash. Alternatively, cells can be loaded with the calcium indicator from Molecular Devices (Calcium 3 Assay Reagents, Cat #R7181) adding 5 μl of a 5× solution dye in Bath 1 containing 1 mM Probenecid (10 ml per dye flask cat #R7182 to generate a solution 20×) to 20 μl of the same buffer. After loading for 60 min, the experiment can be run without having to remove the dye.
(§4) Compounds are prepared at a 2× fold concentration in a 96-well plate (round bottom, Costar Corning cat #3656), by reconstituting the pre-spotted compounds in bath 1 containing 1 mM probenecid. The final concentration DMSO is 0.5%, and the amount of DMSO is normalized across the assay plate. To determine an agonist action of the compounds on muscarinic receptors, the reconstituted compounds are added (25 μl compound/well) to the cell assay plate (containing 25 μl/well) using the multi-channel robotic system of the FLIPR 3 Instrument (Molecular Devices, Sunnyvale, Calif.). To determine a functional inhibitory action of the compounds on muscarinic receptors, the reconstituted compounds are added (25 μl compound/well) to the assay plate and pre-incubated for 15 min prior to adding 25 μl of Carbachol at 3× the EC80 for each muscarinic subtype. Alternatively, the compounds can be co-applied simultaneously with the agonist. In both assay modes, the fluorescence is recorded for 60 sec (excitation wavelength is […] and emission wavelength 540 nm) using the FLIPR 3 instrument.
(§5) The potency, efficacy and selectivity of the muscarinic compounds were evaluated by screening the compound activity across the whole family (M1 to M5 cells). Compounds were also screened for activity on other proteins such as other GPCRs and ion channels to determine selectivity on M4 receptors.
(§6) Examples of activities and efficacies of the muscarinic compounds of formulae (I, Ia, and Ib) on modulating M1 and M4 receptors are shown below in Table 3. […]

[2] = biological target: T2, M1 muscarinic receptor (Homo sapiens, UniProt P11229); assay: Functional mobilization of intracellular calcium (FLIPR), M1-CHO cells; details: for EC50: CHO cells expressing M1, calcium mobilization
T2 construct: expressed in transfected cells; host or cells: CHO (M1-CHO)
T2 sequence (P11229 1-460): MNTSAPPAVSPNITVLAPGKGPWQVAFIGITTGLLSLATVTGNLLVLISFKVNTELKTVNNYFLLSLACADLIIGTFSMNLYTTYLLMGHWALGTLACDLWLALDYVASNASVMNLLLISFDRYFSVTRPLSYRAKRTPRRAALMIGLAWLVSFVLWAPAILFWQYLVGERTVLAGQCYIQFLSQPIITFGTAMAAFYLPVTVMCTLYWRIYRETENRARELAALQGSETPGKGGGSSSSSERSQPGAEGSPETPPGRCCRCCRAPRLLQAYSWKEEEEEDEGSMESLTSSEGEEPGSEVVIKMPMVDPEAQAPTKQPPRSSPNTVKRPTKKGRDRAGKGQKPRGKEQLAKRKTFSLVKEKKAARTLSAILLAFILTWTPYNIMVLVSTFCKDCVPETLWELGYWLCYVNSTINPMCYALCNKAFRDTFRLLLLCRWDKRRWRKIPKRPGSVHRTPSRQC
Procedure: as §1, §2, §3, §4, §5, §6

[3] = biological target: T3, M3 muscarinic receptor (Homo sapiens, UniProt P20309); assay: Functional mobilization of intracellular calcium (FLIPR), M3-CHO cells; details: for EC50: CHO cells expressing M3, calcium mobilization
T3 construct: expressed in transfected cells; host or cells: CHO (M3-CHO)
Procedure: as §1, §2, §3, §4, §5, §6

[4] = biological target: T4, M2 muscarinic receptor (Homo sapiens, UniProt P08172); assay: Functional mobilization of intracellular calcium (FLIPR), M2-CHO cells; details: for EC50: CHO cells expressing M2, calcium mobilization
T4 construct: expressed in transfected cells; host or cells: CHO (M2-CHO)
T4 sequence (P08172 1-466): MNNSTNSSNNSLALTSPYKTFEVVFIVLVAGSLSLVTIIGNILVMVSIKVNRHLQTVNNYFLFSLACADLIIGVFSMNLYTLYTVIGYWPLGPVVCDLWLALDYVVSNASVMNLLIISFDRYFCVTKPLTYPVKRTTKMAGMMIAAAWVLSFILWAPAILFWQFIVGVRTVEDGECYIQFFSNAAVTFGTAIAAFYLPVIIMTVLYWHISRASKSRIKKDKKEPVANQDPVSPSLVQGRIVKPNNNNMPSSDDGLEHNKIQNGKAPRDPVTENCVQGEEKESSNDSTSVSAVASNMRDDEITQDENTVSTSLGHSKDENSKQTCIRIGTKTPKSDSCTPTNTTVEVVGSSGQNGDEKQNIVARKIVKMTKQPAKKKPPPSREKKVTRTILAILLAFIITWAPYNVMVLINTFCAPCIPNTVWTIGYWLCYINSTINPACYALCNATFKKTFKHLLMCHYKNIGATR
Procedure: as §1, §2, §3, §4, §5, §6

[5] = 100% efficacy = maximum response obtained with the Carbachol control

T3 sequence (P20309 whole entry): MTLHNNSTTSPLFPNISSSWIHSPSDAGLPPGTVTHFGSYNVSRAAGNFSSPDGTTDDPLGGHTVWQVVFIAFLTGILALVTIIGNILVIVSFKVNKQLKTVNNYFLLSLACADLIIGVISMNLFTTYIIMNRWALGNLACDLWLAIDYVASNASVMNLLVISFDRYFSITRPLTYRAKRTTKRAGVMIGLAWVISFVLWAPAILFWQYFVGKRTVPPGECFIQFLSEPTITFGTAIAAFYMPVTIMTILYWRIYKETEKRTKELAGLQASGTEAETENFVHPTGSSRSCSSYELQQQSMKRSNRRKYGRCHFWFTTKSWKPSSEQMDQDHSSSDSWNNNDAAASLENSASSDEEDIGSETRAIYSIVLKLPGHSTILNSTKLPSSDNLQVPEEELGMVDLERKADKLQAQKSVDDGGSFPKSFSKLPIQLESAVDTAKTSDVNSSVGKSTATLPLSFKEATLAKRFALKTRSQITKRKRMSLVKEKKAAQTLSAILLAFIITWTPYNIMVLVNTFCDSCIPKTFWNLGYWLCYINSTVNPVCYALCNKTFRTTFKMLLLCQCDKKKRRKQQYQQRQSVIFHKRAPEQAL

O=C1CC2CC3(CCN(C4CC5CCC(C5)C4)CC3)c3ccccc3C2O1 (stereo not shown) [Compound 28]
Emax [1, 5]: 25 to 100%
EC50 [1]: < 2000 nM
Emax [2, 5]: 25 to 100%
EC50 [2]: < 2000 nM
Emax [3, 5]: < 25%
EC50 [3]: > 5000 nM
Emax [4, 5]: < 25%
EC50 [4]: > 5000 nM

CN1C(=O)C[C@@H]2CC3(CCN(C4CCCCCC4)CC3)c3ccccc3[C@@H]21 [Compound 29]
M4 Efficacy [1, 5]: ++ (efficacy was calculated to be from 100% to 25%)
EC50 [1]: < 2000 nM
M1 Efficacy [2, 5]: ++ (efficacy was calculated to be from 100% to 25%)
EC50 [2]: < 2000 nM
M3 Efficacy [3, 5]: + (efficacy was calculated to be less than 25%)
EC50 [3]: > 5000 nM
M2 Efficacy [4, 5]: ++ (efficacy was calculated to be from 100% to 25%)
EC50 [4]: < 2000 nM

O=C1C[C@@H]2[C@H](N1)c1ccccc1C21CCN(C[C@H]2C[C@@H]3CC[C@@H]2C3)CC1 [Compound 30]
Emax [1, 5]: 25 to 100%
EC50 [1]: < 2000 nM
Emax [2, 5]: 25 to 100%
EC50 [2]: < 2000 nM
Emax [3, 5]: < 25%
EC50 [3]: > 5000 nM
Emax [4, 5]: 25 to 100%
EC50 [4]: 2000 to 5000 nM

O=C1C[C@@H]2[C@H](N1)c1ccccc1C21CCN(C2CCCCC2)CC1 [Compound 31]
Emax [1, 5]: 25 to 100%
EC50 [1]: < 2000 nM
Emax [2, 5]: 25 to 100%
EC50 [2]: < 2000 nM
Emax [3, 5]: < 25%
EC50 [3]: > 5000 nM
Emax [4, 5]: < 25%
EC50 [4]: 2000 to 5000 nM

O=C1C[C@@H]2[C@H](N1)c1ccccc1C21CCN(C2C[C@H]3CC[C@@H]2C3)CC1 (stereo partly shown) [Compound 32]
Emax [1, 5]: 25 to 100%
EC50 [1]: < 2000 nM
Emax [2, 5]: 25 to 100%
EC50 [2]: 2000 to 5000 nM
Emax [3, 5]: < 25%
EC50 [3]: > 5000 nM
Emax [4, 5]: 25 to 100%
EC50 [4]: 2000 to 5000 nM
